# Experiments:
# Type in all cases: in vivo
# [1] = system: rice leafhopper species Nephoteftix cincticeps; test: Method D: Nephotettix cinciceps Screen; details: concentration of 500 ppm or less; rice plants dipped, L3 larvae, after 6 days at 25° C.
# Protocol: Method D: Nephotettix cinciceps Screen
# The leaves of 12 rice plants having a stem length of 8 cm were dipped for 5 seconds into an aqueous solution of the formulated preparation to be examined. After the solution had run off, the rice plants treated in this manner were placed in a Petri dish and populated with about 20 larvae (L3 stage) of the rice leafhopper species Nephoteftix cincticeps. The Petri dish was closed and then stored in a climate chamber (16 hours of light/day, 25° C., 40-60% relative atmospheric humidity). After 6 days storage, the mortality among the leafhopper larvae was determined.
# [2] = system: tick larvae (Rhipicephalus sanguineus); test: Method E: Rhipicephalus sanguineus Screen; details: concentration of 500 ppm or less, treated filter paper, after 24 hours at 25° C.
# Protocol: Method E: Rhipicephalus sanguineus Screen A solution of the formulated preparation to be examined was dropped onto filter paper. After solvent evaporation the filter paper was infested with 20-30 tick larvae (Rhipicephalus sanguineus). After 24 hours storage at 25° C. the efficacy of the preparation was determined.
# [3] = system: black bean aphids (Aphis fabae); test: Method B: Aphis fabae Screen; details: concentration of 500 ppm or less; added to water of field bean (Vicia faba) plants, effect on aphids after 3 and 6 days at 25° C.
# Protocol: Method B: Aphis fabae Screen Germinated field bean seeds (Vicia faba) with roots were transferred into bottles filled with tap water and an aqueous solution of the formulated preparation to be examined (4 ml) was added. The plants were then infested with approximately 100 black bean aphids (Aphis fabae) and stored in a controlled-environment cabinet at 25° C. After 3 and 6 days storage, the effect of the preparation on the aphids was determined.
smiles,measurement,setting,value
"CC1=NN(c2c(Cl)cc(C(F)(F)F)cc2Cl)C(=O)C12SC1C=CC2C1 (stereo not drawn) [Compound 8, [1-(2,6-dichloro-4-trifluoromethylphenyl)-3-methylpyrazolin-5-one]-4-spiro-3′-(2′-thiabicyclo[2.2.1]hept-5′-ene)]",control (mortality among the leafhopper larvae),[1],at least 50%
"CC1=C(C)CC2(SC1)C(=O)N(c1c(Cl)cc(C(F)(F)F)cc1Cl)N=C2C#N (stereo not drawn) [Compound 9, [1-(2,6-dichloro-4-trifluoromethylphenyl)-3-cyanopyrazolin-5-one]-4-spiro-2′-(4′,5′-dimethyl-2′H-3′,6′-dihydrothiane)]",control (efficacy),[2],at least 50%
"CC1=NN(c2c(Cl)cc(C(F)(F)F)cc2Cl)C(=O)C12CC=C(c1ccccc1)C[S+]2[O-] (stereo not drawn) [Compound 12, [1-(2,6-dichloro-4-trifluoromethylphenyl)-3-methylpyrazolin-5-one]-4-spiro-2′-(5′-phenyl-1′-oxo-2′H-3′,6′-dihydrothiane)]",control,[3],at least 50%
